# According to US20020183277A1, “Combination of vitamin D analogue and pyrimidine nucleoside analogue” (priority 2001, published 2002):
# How the values were obtained:
# solid tumours = conditions: clinical efficacy, limited by dose-limiting toxicity; cited from earlier work
# [1] = test system: estrogen receptor-negative MDA-MB-231 tumours; conditions: in combination with doxifluridine, MDA-MB-231 tumours in athymic mice; cited from earlier work
# [2] = test system: cytidine deaminase activity in FHC cells; assay: cytidine deaminase activity in FHC cells; assay type: cell-based, human; conditions: continuous exposure, period of 11 days, control 0.07±0.03 nmol/min/mg
# Procedure: (§1) The cytidine deaminase activity in the cell extracts was determined by measuring the conversion of radiolabelled cytidine to […] and uracil. The assay is a combination of the methods described in J. Mejer and P. Nygaard, “Cytosine Arabinoside Phosphorylation and Deamination in Acute Myeloblastic Leukemia Cells”, Leukemia Research 2, 1978 pp. 127-131, and B. R. De Saint Vincent et al., “The Modulation of Thymidine Triphosphate Pool of Chinese Hamster Cells by dCMP Deaminase and UDP Reductase”, J. Biol. Chem. 255, 1980, pp. 162-167, which are hereby incorporated by reference.
# (§2) The effect of administration of 1α, 25-dihydroxyvitamin D3 or seocalcitol (EB 1089) on growth of FHC cells was investigated. FHC cells are normal human colon epithelial cells (ATCC CRL-1831) considered to be a good model of normal human colon epithelium. The cells were grown in a culture medium supplemented with 10^−7 M 1α,25-dihydroxyvitamin D3 or seocalcitol for 14 days.
# Similarly, cytidine deaminase and thymidine phosphorylase activity in FHC cells following continuous exposure to 1α,25-dihydroxyvitamin D3 or seocalcitol was determined as described in example 1. […]
# [3] = test system: thymidine phosphorylase (TP) activity in HT-29 cells; assay: thymidine phosphorylase activity in extracts of treated HT-29 cells; assay type: cell-based, human; conditions: 10^-7 M; for thymidine phosphorylase activity: at day 11 (control 0.395±0.062); for thymidine phosphorylase activity compared to isopropanol-treated cells: first 5 days
# Procedure: (§3) HT-29 cells (a human colon cancer cell line) were grown in medium to which was added 0.0025% isopropanol as control, 10^−7 M 1α, 25-dihydroxyvitamin D3 or 10^−7 M seocalcitol, respectively. The medium was changed on days 1, 4, 6, 8, 11 and 13, each time with addition of isopropanol, 1α, 25-dihydroxyvitamin D3 or seocalcitol, as appropriate.
# (§4) On each of the indicated days, cells from each culture were harvested, pelleted and frozen. For the cytidine deaminase and thymidine phosphorylase assays, the frozen cell pellet was thawed and resuspended in 150 μl of 0.1 M Tris-Hcl, pH 8.1. The cell suspension was sonicated for 2-5 seconds and centrifuged at 20000×g for 20 minutes at 4° C. 100 μl of cell extract was transferred to Eppendorf tubes containing 0.5 μl 1M DTT.
# (§5) The thymidine phosphorylase activity was determined by measuring the conversion of radiolabelled thymidine to thymine. The assay method used was a slight modification of the method described in T. Sumizawa et al., “Thymidine Phosphorylase Activity Associated with Platelet-Derived Endothelial Cell Growth Factor”, J. Biochem. 114, 1993, pp. 9-14, which is hereby incorporated by reference.
# 10 μl 50 mM sodium phosphate, pH 7.0
# 10 μl mM Tris-HCl, pH 7.6
# 2 μl ^3H-thymidine (5 Ci/mmol, 1 mCi/ml)
# The substrate and product were separated on PEI-cellulose plates placed in about 1.5 cm of water.
# [4] = test system: cytidine deaminase (CDA) activity in HT-29 cells; assay: cytidine deaminase activity in extracts of treated HT-29 cells; assay type: cell-based, human; conditions: 10^-7 M; for increase in cytidine deaminase activity: incubation at day 1 for 24 hours, versus isopropanol control
# Procedure: as §3, §4, §1
# The assay mixture has a total volume of 50 μl and the following composition:
# 2 μl ^3H-cytidine (18.2 Ci/mmol, 1 mCi/ml)
# The substrate and products were separated on PEI-cellulose plates placed in about 1.5 cm of a mixture of isopropanol:water:ethyl acetate 41:22:117.
# [5] = test system: thymidine phosphorylase activity in FHC cells; assay: thymidine phosphorylase activity in FHC cells; assay type: cell-based, human; conditions: continuous exposure, period of 11 days, control 0.25±0.04 nmol/min/mg
# Procedure: as §5, §2
# Similarly, cytidine deaminase and thymidine phosphorylase activity in FHC cells following continuous exposure to 1α,25-dihydroxyvitamin D3 or seocalcitol was determined as described in example 1. The cytidine deaminase and thymidine phosphorylase activity in control cells remained constant at 0.07±0.03 and 0.25±0.04 nmol/min/mg, respectively, over a period of 11 days and was unaffected by the presence of 1α,25-dihydroxyvitamin D3 or seocalcitol.
# FHC cells = assay: growth of FHC cells; assay type: cell-based; conditions: normal human colon epithelial cells, 10^-7 M, 14 days
# Procedure: as §2
# [6] = test system: cell growth and enzymatic activity; assay: 2 hours versus continuous exposure (previous experiment); assay type: cell-based; conditions: 10^-7 M
# [7] = test system: cytidine deaminase in HL60 cells; conditions: human promyeolytic cell line HL60; cited from earlier work
# cytidine deaminase gene = conditions: HL60, WiDr, Colo 201, Colo 205, CXF 280, DLD-1, MKN 45, MKN 1, MKN 28 and A549 cells; cited from earlier work
# [8] = after 8 days of incubation, p<0.0001
Compound,overall response rate (solid tumours),effect of combination treatment versus 22-oxacalcitriol alone [1],cytidine deaminase activity in FHC cells [2],thymidine phosphorylase activity [3] [nmol/min/mg],thymidine phosphorylase activity compared to isopropanol-treated cells [3],"increase in cytidine deaminase activity relative to that observed for 1α,25-dihydroxyvitamin D3 [4, 8]",increase in cytidine deaminase activity [4] [fold],thymidine phosphorylase activity in FHC cells [5],growth of FHC cells compared to untreated control cells (FHC cells),effect on cell growth and enzymatic activity of 2 hours of exposure versus continuous exposure [6],cytidine deaminase in HL60 cells [7],"maximum increase in cytidine deaminase activity [4, 8] [fold]",expression of the cytidine deaminase gene (cytidine deaminase gene)
"O=c1[nH]cc(F)c(=O)[nH]1 [5-FU, 5-fluorouracil]",10-30%,,,,,,,,,,,,
C=C1/C(=C\C=C2/CCC[C@]3(C)[C@@H]([C@H](C)OCCC(C)(C)O)CC[C@@H]23)C[C@@H](O)C[C@@H]1O [22-oxacalcitriol],,did not exceed that of treatment with 22-oxacalcitriol alone,,,,,,,,,,,
C=C1/C(=C\C=C2/CCC[C@]3(C)[C@@H]([C@H](C)/C=C/C=C/C(O)(CC)CC)CC[C@@H]23)C[C@@H](O)C[C@@H]1O [seocalcitol],,,unaffected,0.672,the same as in isopropanol-treated cells,twice,4.9,unaffected,not significantly affected,equivalent effect,,,
"C=C1/C(=C\C=C2/CCC[C@]3(C)[C@@H]([C@H](C)CCCC(C)(C)O)CC[C@@H]23)C[C@@H](O)C[C@@H]1O [1α,25-dihydroxyvitamin D3]",,,unaffected,0.323,the same as in isopropanol-treated cells,,4.5,unaffected,not significantly affected,,causes an increase,15.5,upregulates
